Entries after “also recorded” stand apart in the source; their conditions may differ.
Key:
[1] = test system: M. haemolytica (OSU-012103-BHI); test: In vivo bovine lung infection (intratracheal) challenge model
[2] = test system: Lung bacteria isolated at necropsy; test: MIC of recovered isolates, natural bovine respiratory disease study
Experimental: The primary clinical endpoint for efficacy was treatment failure/success over a 14-day observation period. Clinically normal beef calves (150-200 kg) at moderate risk for BRD were dosed on arrival to the feedlot. Animals (N=114/group) received saline (T01), 5 mg/kg M9 (T02) or 10 mg/kg M9 (T03); or Zactran (T04). […] Bacterial isolates were collected at necropsy and MICs were evaluated (Table 4).

upstream regulators = test: Lung tissue RNA sequence analysis, ingenuity pathway analysis; format: in vivo, mice; conditions: M9 32 mg/kg (T03)
Experimental: In one murine P. multocida intranasal challenge study, mice were administered tulathromycin (16 mg/kg; T02), M9 (32 mg/kg; T03), or ceftiofur (9 mg/kg; T04) by subcutaneous injection 18 hours after bacterial challenge (5×10^3 CFU/mouse) for lung tissue RNA sequence analysis. […] Data was analyzed based on the number of genes being modulated in the same direction that were associated with a given upstream regulator. An activation z-score of 2 or greater is considered significant and the direction change is indicated by +(activated) or −(inhibited).

[3] = PK study, plasma concentration; conditions: 10 mg/kg dose
CD163 = CD163 expression by flow cytometry, blood of treated cattle; conditions: monocytes/macrophages
P. multocida 46572 = test: In vivo mouse lung infection challenge model (murine); set-up: species or system CD-1 female mice
Outline: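 CD-1 female mice were challenged intranasally with mid-log P. multocida 46572 (target 5×10^2 CFU/mouse), then given 20 mg/kg subcutaneously in buffered (~pH 5.4) propylene glycol/monothioglycerol/water. Mortality was followed to Day 10, analysed by generalized mixed model and survival analysis; harmonized survival is relative to vehicle and positive controls.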

P. multocida = test: Murine P. multocida intranasal challenge study, survival; format: in vivo, mice; conditions: 5×10^3 CFU/mouse; subcutaneous 18 hours after challenge; tulathromycin 16 mg/kg, M9 32 mg/kg, ceftiofur 9 mg/kg
TNF-α = test: Whole blood assay, LPS stimulation, MSD cytokine detection; format: cell-based; conditions: Bos taurus, fresh whole bovine blood
[4] = H. somni (25) lung isolates at necropsy

## CCCNC[C@]1(O)[C@H](C)O[C@@H](O[C@H]2[C@H](C)[C@@H](O[C@@H]3O[C@H](C)C[C@H](NC)[C@H]3O)[C@](C)(O)C[C@@H](C)CN[C@H](C)[C@@H](O)[C@](C)(O)[C@@H](CC)OC(=O)[C@@H]2C)C[C@@]1(C)OC [Example M9, (2R,3S,4R,5R,8R,10R,11R,12S,13S,14R)-2-ethyl-3,4,10-trihydroxy-13-(((2R,4R,5S,6S)-5-hydroxy-4-methoxy-4,6-dimethyl-5-((propylamino)methyl)-tetrahydro-2H-pyran-2-yl)oxy)-11-(((2S,3R,4S,6R)-3-hydroxy-6-methyl-4-(methylamino)tetrahydro-2H-pyran-2-yl)oxy)-3,5,8,10,12,14-hexamethyl-1-oxa-6-azacyclopentadecan-15-one]
[1]; No challenge, M9 10 mg/kg (T04)
  mortality: 0/6
[1]; second intratracheal challenge study, 10 mg/kg (T05)
  Mortality (%): 12.5%
[2]; [4]
  MIC50: 32 µg/mL
  MIC90: 32 µg/mL
  MIC Range: 8 to 64 µg/mL
[2]; some of the isolates
  MIC, BRD bacterial isolates collected at necropsy: < 64 µg/mL
Upstream regulators
  activation z-score, IFNγ: −5.759
  activation z-score, IL-1β: −5.947
  activation z-score, STAT1: −2.787
  activation z-score, TNF: −4.669
  activation z-score, lipopolysaccharide: −6.725
  activation z-score, poly rl:rC-RNA: −5.289
Upstream regulators; total lung tissue
  unique genes up or down regulated (with significance): at least 226
[3]
  maximum plasma concentration: 5 µg/mL
CD163
  CD163 expression: suppressed; also recorded: mitigates the pathologic increase
P. multocida 46572; M9 positive control, 20 mg/kg
  Mouse survival: 90-100%
P. multocida 46572; mouse, in vivo
  clinical efficacy, P. multocida infection in mice: clinically efficacious
P. multocida
  Survival at Day 7: ~50%
TNF-α
  IC50: 250 µM

Reference: US12390441B2, “Immunomodulating o-het/aryl azalides” (Zoetis Services LLC, priority 2020, dated 2025)
